# From US11472791B2 (Incyte Corporation, priority 2019, dated 2022)
# Molecular target: CDK2/Cyclin E1 (Homo sapiens (Human), UniProt P24941)
# Assay: CDK2/Cyclin E1 HTRF enzyme activity assay
# Format: biochemical
# Conditions: 1 mM ATP
# Procedure: Assays are conducted in white 384-well polystyrene plates in a final reaction volume of 8 μL. […] HTRF signals are read after 1 hour at room temperature on a PHERAstar FS plate reader (BMG Labtech). Data is analyzed with IDBS XLFit and GraphPad Prism 5.0 software using a three or four parameter dose response curve to determine IC50 for each compound.
row,SMILES,IC50 [nM]
1,"CCS(=O)(=O)N1CCC(Nc2ncc(C#N)c(-c3cnn(-c4ccc(CN[C@H]5CC[C@](C)(O)CC5)cc4Cl)c3)n2)CC1 [Example 176, 4-(1-(2-Chloro-4-((((1r,4r)-4-hydroxy-4-methylcyclohexyl)amino)methyl)phenyl)-1H-pyrazol-4-yl)-2-((1-(ethylsulfonyl)piperidin-4-yl)amino)pyrimidine-5-carbonitrile]",< 50
2,"N#Cc1cnc(N[C@H]2CCN(S(=O)(=O)C3CC3)C[C@H]2F)nc1-c1cnn(-c2ccc(CNCC3(O)CC3)cc2Cl)c1 [Example 156, 4-(1-(2-Chloro-4-((((1-hydroxycyclopropyl)methyl)amino)methyl)phenyl)-1H-pyrazol-4-yl)-2-(((3R,4S)-1-(cyclopropylsulfonyl)-3-fluoropiperidin-4-yl)amino)pyrimidine-5-carbonitrile]",< 50
3,"Cc1cc(CN(C)C)ccc1-n1cc(-c2nc(NC3CCN(S(=O)(=O)c4cn(C)cn4)CC3)ncc2C(F)(F)F)cn1 [Example 106, 4-(1-(4-((Dimethylamino)methyl)-2-methylphenyl)-1H-pyrazol-4-yl)-N-(1-((1-methyl-1H-imidazol-4-yl)sulfonyl)piperidin-4-yl)-5-(trifluoromethyl)pyrimidin-2-amine]",< 50
4,"CN1CCN(Cc2ccc(-n3cc(-c4nc(NC5CCN(S(=O)(=O)C6CC6)CC5)ncc4C#N)cn3)c(Cl)c2)CC1 [Example 259, 4-(1-(2-Chloro-4-((4-methylpiperazin-1-yl)methyl)phenyl)-1H-pyrazol-4-yl)-2-((1-(cyclopropylsulfonyl)piperidin-4-yl)amino)pyrimidine-5-carbonitrile]",< 50
5,"CS(=O)(=O)N1CCCC(Nc2ncc(C(F)(F)F)c(-c3cnn(C4CCOCC4)c3)n2)C1 (racemic) [Example 19, (±)-N-(1-(Methylsulfonyl)piperidin-3-yl)-4-(1-(tetrahydro-2H-pyran-4-yl)-1H-pyrazol-4-yl)-5-(trifluoromethyl)pyrimidin-2-amine]",500 to 1000
6,"CS(=O)(=O)N1CCC(Nc2ncc(C#N)c(-c3cnn(-c4ccc(CN[C@H]5CC[C@@H](O)C5)cc4Cl)c3)n2)CC1 [Example 188, 4-(1-(2-Chloro-4-((((1S,3R)-3-hydroxycyclopentyl)amino)methyl)phenyl)-1H-pyrazol-4-yl)-2-((1-(methylsulfonyl)piperidin-4-yl)amino)pyrimidine-5-carbonitrile]",< 50
7,"CS(=O)(=O)N1CCC(Nc2ncc(C#N)c(-c3cnn(-c4ccc(CN[C@@H]5CCCC[C@H]5O)cc4Cl)c3)n2)CC1 [Example 178, 4-(1-(2-Chloro-4-((((1R,2R)-2-hydroxycyclohexyl)amino)methyl)phenyl)-1H-pyrazol-4-yl)-2-((1-(methylsulfonyl)piperidin-4-yl)amino)pyrimidine-5-carbonitrile]",< 50
8,"CCNCc1ccc(-n2cc(-c3nc(N[C@H]4CCN(S(=O)(=O)c5cn(C)cn5)C[C@H]4C)ncc3C(F)(F)F)cn2)c(C)n1 [Example 271, 4-(1-(6-((Ethylamino)methyl)-2-methylpyridin-3-yl)-1H-pyrazol-4-yl)-N-((3R,4S)-3-methyl-1-((1-methyl-1H-imidazol-4-yl)sulfonyl)piperidin-4-yl)-5-(trifluoromethyl)pyrimidin-2-amine]",< 50
9,"CS(=O)(=O)N1CCC(Nc2ncc(C#N)c(-c3cnn(-c4ccc(CN[C@H]5C[C@@H](O)C5)cc4Cl)c3)n2)CC1 [Example 162, 4-(1-(2-Chloro-4-((((1s,3s)-3-hydroxycyclobutyl)amino)methyl)phenyl)-1H-pyrazol-4-yl)-2-((1-(methylsulfonyl)piperidin-4-yl)amino)pyrimidine-5-carbonitrile]",< 50
10,"O=S(=O)(Cc1ccccc1)N1CCC(Nc2ncc(C(F)(F)F)c(-c3cnn(C4CCOCC4)c3)n2)CC1 [Example 5, N-(1-(Benzylsulfonyl)piperidin-4-yl)-4-(1-(tetrahydro-2H-pyran-4-yl)-1H-pyrazol-4-yl)-5-(trifluoromethyl)pyrimidin-2-amine]",< 50
11,"[2H]C([2H])([2H])NCc1ccc(-n2cc(-c3nc(NC4CCN(S(C)(=O)=O)CC4)ncc3Cl)cn2)c(Cl)c1 [Example 134, 5-Chloro-4-(1-(2-chloro-4-(((methyl-d3)amino)methyl)phenyl)-1H-pyrazol-4-yl)-N-(1-(methylsulfonyl)piperidin-4-yl)pyrimidin-2-amine]",< 50
12,"CCS(=O)(=O)N1CC[C@H](Nc2ncc(C#N)c(-c3cnn(-c4ccc(CNC)cc4Cl)c3)n2)[C@H](F)C1 [Example 117, 4-(1-(2-Chloro-4-((methylamino)methyl)phenyl)-1H-pyrazol-4-yl)-2-(((3R,4S)-1-(ethylsulfonyl)-3-fluoropiperidin-4-yl)amino)pyrimidine-5-carbonitrile]",< 50
13,"CCNCc1ccc(-n2cc(-c3nc(N[C@H]4CCN(S(=O)(=O)c5cn(C)cn5)C[C@H]4C)ncc3C#N)cn2)c(C)n1 [Example 273, 4-(1-(6-((Ethylamino)methyl)-2-methylpyridin-3-yl)-1H-pyrazol-4-yl)-2-(((3R,4S)-3-methyl-1-((1-methyl-1H-imidazol-4-yl)sulfonyl)piperidin-4-yl)amino)pyrimidine-5-carbonitrile]",< 50
14,"CCS(=O)(=O)N1CCC(Nc2ncc(C#N)c(-c3cnn(-c4ccc(CN5CCN(C)CC5)cc4Cl)c3)n2)CC1 [Example 239, 4-(1-(2-chloro-4-((4-methylpiperazin-1-yl)methyl)phenyl)-1H-pyrazol-4-yl)-2-((1-(ethylsulfonyl)piperidin-4-yl)amino)pyrimidine-5-carbonitrile]",< 50
15,"N#Cc1cnc(N[C@H]2CCN(S(=O)(=O)C3CC3)C[C@H]2F)nc1-c1cnn(-c2ccc(CN[C@H]3C[C@@H](C#N)C3)cc2Cl)c1 [Example 154, 4-(1-(2-Chloro-4-((((1s,3s)-3-cyanocyclobutyl)amino)methyl)phenyl)-1H-pyrazol-4-yl)-2-(((3R,4S)-1-(cyclopropylsulfonyl)-3-fluoropiperidin-4-yl)amino)pyrimidine-5-carbonitrile]",< 50
16,"CN1CCN(Cc2ccc(-n3cc(-c4nc(NC5CCN(S(C)(=O)=O)CC5)ncc4C#N)cn3)c(Cl)c2)CC1=O [Example 240, 4-(1-(2-Chloro-4-((4-methyl-3-oxopiperazin-1-yl)methyl)phenyl)-1H-pyrazol-4-yl)-2-((1-(methylsulfonyl)piperidin-4-yl)amino)pyrimidine-5-carbonitrile]",< 50

# Further lines, results first:
row,IC50 [nM],SMILES
1,< 50,"CC(C)(O)Cn1cc(-c2nc(NC3CCN(S(=O)(=O)CCCCO)CC3)ncc2C(F)(F)F)cn1 [Example 93, 4-((4-((4-(1-(2-Hydroxy-2-methylpropyl)-1H-pyrazol-4-yl)-5-(trifluoromethyl)pyrimidin-2-yl)amino)piperidin-1-yl)sulfonyl)butan-1-ol]"
2,< 50,"CC(C)(O)Cn1cc(-c2nc(N[C@H]3CCN(S(=O)(=O)CCCN4CCCC4)C[C@H]3F)ncc2C(F)(F)F)cn1 [Example 203, 1-(4-(2-(((3R,4S)-3-Fluoro-1-((3-(pyrrolidin-1-yl)propyl)sulfonyl)piperidin-4-yl)amino)-5-(trifluoromethyl)pyrimidin-4-yl)-1H-pyrazol-1-yl)-2-methylpropan-2-ol]"
3,< 50,"CN1CCN(CCCS(=O)(=O)N2CC[C@H](Nc3ncc(C(F)(F)F)c(-c4cnn(CC(C)(C)O)c4)n3)[C@H](F)C2)CC1=O [Example 212, 4-(3-(((3R,4S)-3-Fluoro-4-((4-(1-(2-hydroxy-2-methylpropyl)-1H-pyrazol-4-yl)-5-(trifluoromethyl)pyrimidin-2-yl)amino)piperidin-1-yl)sulfonyl)propyl)-1-methylpiperazin-2-one]"
4,< 50,"C[C@@H]1CN(S(=O)(=O)C2CC2)CC[C@@H]1Nc1ncc(C(F)(F)F)c(-c2cnn(CC(C)(C)O)c2)n1 [Example 59, 1-(4-(2-(((3R,4S)-1-(Cyclopropylsulfonyl)-3-methylpiperidin-4-yl)amino)-5-(trifluoromethyl)pyrimidin-4-yl)-1H-pyrazol-1-yl)-2-methylpropan-2-ol]"
5,< 50,"CC(O)(Cn1cc(-c2nc(NC3CCN(S(C)(=O)=O)CC3)ncc2C(F)(F)F)cn1)C(F)(F)F (racemic) [Example 95, (±)-1,1,1-Trifluoro-2-methyl-3-(4-(2-((1-(methylsulfonyl)piperidin-4-yl)amino)-5-(trifluoromethyl)pyrimidin-4-yl)-1H-pyrazol-1-yl) propan-2-ol]"
6,< 50,"CC(C)(O)Cn1cc(-c2nc(NC3CCN(S(=O)(=O)CCCCN4CCCC4)CC3)ncc2C#N)cn1 [Example 217, 4-(1-(2-Hydroxy-2-methylpropyl)-1H-pyrazol-4-yl)-2-((1-((4-(pyrrolidin-1-yl)butyl)sulfonyl)piperidin-4-yl)amino)pyrimidine-5-carbonitrile]"
7,< 50,"COC1CCN(CCCS(=O)(=O)N2CCC(Nc3ncc(C(F)(F)F)c(-c4cnn(CC(C)(C)O)c4)n3)CC2)CC1 [Example 77, 1-(4-(2-((1-((3-(4-Methoxypiperidin-1-yl)propyl)sulfonyl)piperidin-4-yl)amino)-5-(trifluoromethyl)pyrimidin-4-yl)-1H-pyrazol-1-yl)-2-methylpropan-2-ol]"
8,< 50,"CC(C)(O)Cn1cc(-c2nc(NC3CCN(S(=O)(=O)CCCN4CC[C@@](C)(O)C4)CC3)ncc2C(F)(F)F)cn1 [Example 223, (R)-1-(3-((4-((4-(1-(2-Hydroxy-2-methylpropyl)-1H-pyrazol-4-yl)-5-(trifluoromethyl)pyrimidin-2-yl)amino)piperidin-1-yl)sulfonyl)propyl)-3-methylpyrrolidin-3-ol]"
9,< 50,"CN1CCN(CCCS(=O)(=O)N2CCC(Nc3ncc(C(F)(F)F)c(-c4cnn(CC(C)(C)O)c4)n3)CC2)CC1 [Example 68, 2-Methyl-1-(4-(2-((1-((3-(4-methylpiperazin-1-yl)propyl)sulfonyl)piperidin-4-yl)amino)-5-(trifluoromethyl)pyrimidin-4-yl)-1H-pyrazol-1-yl)propan-2-ol]"
